Target: T1, NKG2D-Fc (Homo sapiens, UniProt P26718)
T1 construct: the extracellular domain of NKG2D was fused with an IgG Fc fragment; made in house; host or cells: CHO cells
T1 sequence (P26718 73-216 limits assumed): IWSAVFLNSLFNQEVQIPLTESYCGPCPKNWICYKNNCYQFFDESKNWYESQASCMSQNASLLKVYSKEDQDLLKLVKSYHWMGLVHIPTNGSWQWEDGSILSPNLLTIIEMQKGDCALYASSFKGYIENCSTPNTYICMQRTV
Test: Flow cytometry on streptavidin sepharose beads coated with NKG2D-Fc
Assay type: binding
Conditions: 300 nM
Protocol: HT1080.hPSMA and PC3.hACP3 cell lines were generated by lentiviral transduction on wild type cells (HT1080.wt and PC3.wt), according to published procedures9. For long-term storage, cell lines were maintained in liquid nitrogen. Prior to in vitro and in vivo experiments, cells were cultured in DMEM (PC3.wt, PC3.hACP3, HT1080.wt, and HT1080.hPSMA) or RPMI medium (SK-RC-52) (medium provided by Invitrogen) supplemented with FCS (10%, Invitrogen) and antibiotic-antimycotic (1%, AA, Invitrogen) at 37 °C and 5% CO2. For passaging, cells were detached using Trypsin-EDTA 0.05% (Invitrogen) when reaching 90% confluency and re-seeded at a dilution of 1:3 (PC3.hACP3 and PC3.wt) […]
2.17 Flow cytometry experiments on cells
Cancer cells were detached with an Accutase® cell detachment solution, resuspended in a standard culture medium, and transferred to falcon tubes. Cells were counted and centrifuged at 400 rcf for 3 min. […] Data were acquired halting the measurement at 10´ 000 events on a Cytoflex S flow cytometer (Beckman Coulter), and analyzed using the FlowJo software v10 (BD Biosciences). […]
plate (20 µL/well). […] Data were acquired halting the measurement at 10’000 events on a Cytoflex S flow cytometer (Beckman Coulter) and analyzed using the FlowJo software v10 (BD Biosciences). […]

- binding on NKG2D-Fc-coated streptavidin sepharose beads by flow cytometry: significant shift in binding
Compound: CC(C)Oc1ccc(-c2cccc(C[C@H](NC(=O)c3ccccc3-c3ccc(C(F)(F)F)cc3)C(=O)N[C@@H](CCCCNC(=S)Nc3ccc4c(c3)C(=O)OC43c4ccc(O)cc4Oc4cc(O)ccc43)C(=O)O)c2)c(F)c1 [compound 30]
